Where “and” joins values, the source holds several entries; their conditions need not be identical. Identical values can stand only once.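 Growth conditions: 96-well plates. Treatment: test compound, 48 hours, 5 concentrations. Analysis: linear interpolation between bracketing concentrations; unreached endpoints set to highest concentration. Abbreviation: GI50, concentration required for 50% inhibition of growth. TGI denotes the concentration required for complete inhibition of growth.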
How the values were obtained:
Assay in all cases: NCI tumour cell line growth inhibition, 48 h
SR leukemia = test system: SR leukemia
SK-MEL-2 melanoma = test system: SK-MEL-2 melanoma
DU-145 prostate = test system: DU-145 prostate
HCT-15 colon = test system: HCT-15 colon
HOP-62 NSCLC = test system: HOP-62 NSCLC
TK-10 renal = test system: TK-10 renal
MALME-3M melanoma = test system: MALME-3M melanoma
NCI-H23 lung = test system: NCI-H23 lung
NCI-H460 lung = test system: NCI-H460 lung
SF-539 CNS = test system: SF-539 CNS
MCF7 breast = test system: MCF7 breast

SMILES	TGI (SR leukemia) [µM]	TGI (SK-MEL-2 melanoma) [µM]	TGI (DU-145 prostate) [µM]	TGI (HCT-15 colon) [µM]	TGI (HOP-62 NSCLC) [µM]	TGI (TK-10 renal) [µM]	TGI (MALME-3M melanoma)	TGI (NCI-H23 lung) [µM]	TGI (NCI-H460 lung) [µM]	TGI (SF-539 CNS) [µM]	TGI (MCF7 breast) [µM]	GI50 (MCF7 breast)	GI50 (MALME-3M melanoma)	GI50 (SR leukemia) [µM]	GI50 (SK-MEL-2 melanoma) [µM]	GI50 (HOP-62 NSCLC) [µM]	GI50 (NCI-H460 lung) [µM]	GI50 (SF-539 CNS) [µM]
CCOC(=O)C(NC(=O)CC(C)C)(Nc1ccc(S(=O)(=O)Nc2nc(C)cc(C)n2)cc1)C(F)(F)F (stereo unspecified)	> 100	> 100	> 100	> 100	> 100	> 100	> 100 µM	> 100	> 100	> 100								
CCCCCCCCC/C=C1\CC(CO)(COC(=O)C2CCCCC2)OC1=O (stereo unspecified)	> 100	43.1	21.5	41.7	27.9	49.8	31.9 µM	47	57.1		43.9							
COc1cc(C2c3cc4c(cc3OC(Nc3ccccc3)C2C)OCO4)cc(OC)c1OC (stereo unspecified)		> 100	> 100	> 21.6	9.89	> 100	> 100 µM	> 100	> 100	0.697	> 100							
O=c1oc2ccccc2c(O)c1C(c1ccc(/C=C/c2ccccc2)cc1)c1c(O)c2ccccc2oc1=O		> 100	> 100	> 100	89.3	> 100	65.7 µM	> 100	55.9									
Cc1cccc2[s+]snc12	77.8	> 100		> 72.3	> 100	> 100	> 67.3 µM	> 100	> 100	> 100								
Cn1c(Nc2ccccc2)c(C=Nc2ccccc2)c(=O)n(C)c1=O		> 100	> 100		79.7	> 100		> 100	> 100	> 100	> 100							
COC(=O)C1[C@@H](C(=O)OC)C12C=Cc1ccccc1C=C2 (stereo partly specified)	> 100	> 100		> 100	> 100	> 100	> 100 µM	> 100	> 100	> 100								
C#C[C@]1(O)CCC2C3CCc4cc(Oc5nc(F)nc(-c6c7cc8ccccc8cc7c7n6CCS7)n5)ccc4C3CCC21C (stereo partly specified)		89.7			> 100	> 100	> 100 µM	> 100	> 100	> 100								
CCCn1c(SCC)c2cc3cc4ccccc4cc3cc2c1-c1nc(F)nc(F)n1	> 100	> 100		> 100	> 100	> 100	> 100 µM	> 100	> 100	> 100								
CCOC(=O)c1c(-c2ccc(O)c(OC)c2)c(C#N)c(=S)n(C2OC(COC(C)=O)C(OC(C)=O)C(OC(C)=O)C2OC(C)=O)c1-c1ccccc1 (stereo unspecified)	> 100		> 100	> 100	> 100		50.3 µM and > 100 µM	> 100	> 100		> 100	22.4 µM and 63.3 µM	20.9 µM and 62.3 µM					
CCCN1CN(C(C(=O)N[C@@H]2C(=O)N3C(C(=O)O)=C(C)CSC23)c2ccc(O)cc2)CSC1=S (stereo partly specified)		> 100		> 100	> 100	> 100	> 100 µM	> 100	> 100	> 100								
Cn1c(NS(=O)(=O)c2ccccc2)nc2ccccc21	> 100		> 100	> 100		> 100	> 100 µM	> 100	> 100	> 100	> 100							
O=C(O)c1ccc(Nc2nc3ccccc3nc2-c2cccs2)cc1	> 100		> 100	> 100	> 100	> 100	> 100 µM	> 100	> 100	> 100								
CC/C=C/C(=O)CC(O)(C(F)(F)F)C(F)(F)F	> 100		> 100	> 100	> 100	> 100	> 100 µM	> 100	> 100	> 100	> 100							
CCN(CC)C(=S)SNCc1ccc(S(N)(=O)=O)cc1	> 64.6	39.5	33.4	58	30.5	> 66	30.9 µM	44.3	34.4	32.1								
c1cn2cc(-c3ccc4ncn(C5CCCCC5)c4c3)nc(-c3ccc4c(c3)ncn4C3CCCCC3)c2n1	> 100	3.35			3.72		3.75 µM		4.02	3.15	4.58	1.8 µM	2.11 µM	2.87	1.74	2	1.98	1.63
CN(C(=O)Cc1ccc(Cl)c(Cl)c1)[C@@H]1CCCC[C@H]1[N+]1(C)CC=CC1	> 100	> 100	> 100	> 100	> 100	> 100	> 100 µM	> 100			> 100							
COC(=O)C1=C(\c2ccccc2)c2ccccc2C(=O)N(C2CCCCC2)/C=C\1		39.2	> 100	> 100	45.3	> 100	68.6 µM	> 100	65.7	55.9	77.4							
COC(=O)C(=O)C(C(=O)C(=O)Nc1ccccc1C(C)=O)c1nc2ccc(C(=O)c3ccccc3)cc2[nH]c1=O (stereo unspecified)		> 100		> 100	> 100	> 100	> 100 µM	> 100	> 100	> 100	> 100							
O=C(c1cccs1)N(C(=S)N1CCN(c2ccccn2)CC1)C1CCCCC1	> 100	> 100		> 100	> 100	> 100	> 100 µM	> 100	> 100	> 100								
Cc1cc(NCCCCCCCCCC[n+]2c(C)cc(N)c3ccccc32)c2ccccc2n1		7.29	22.3	18.4	30.1	18.3	18.5 µM	6.54		> 100	> 100							
COc1ccc(NC(C)=O)cc1C1CCC(=O)N1 (stereo unspecified)		> 100	> 100	> 100	> 100	> 100	> 100 µM	> 100	> 100	> 100	> 100							

Source: PubChem BioAssay (NCI)
